Tested on: MV-4-11 cells
Experiment: Gene expression microarray analysis (Affymetrix PrimeView) and GSEA
Type: cell-based, human
Parameters: RFU PODN (11730768_x_at) / Fold change /veh PODN (11730768_x_at) / RFU LINC00158 (11744669_a_at) / Fold change /veh LINC00158 (11744669_a_at) / RFU DUSP10 (11751237_a_at) / Fold change /veh DUSP10 (11751237_a_at) / RFU ID3 (11757404_x_at) / Fold change /veh ID3 (11757404_x_at) / RFU PLEKHG5 (11737974_s_at) / Fold change /veh PLEKHG5 (11737974_s_at) / RFU LRRC4B (11730491_at) / Fold change /veh LRRC4B (11730491_at) / RFU GIMAP4 (11747438_a_at) / Fold change /veh GIMAP4 (11747438_a_at) / RFU KRT8 (11758183_x_at) / Fold change /veh KRT8 (11758183_x_at) / RFU CNN1 (11734310_a_at) / Fold change /veh CNN1 (11734310_a_at) / RFU VPS37D (11726825_at) / Fold change /veh VPS37D (11726825_at) / RFU C10orf10 (11716522_x_at) / Fold change /veh C10orf10 (11716522_x_at) / RFU KIR2DL2 /// KIR2DL4 /// KIR2DL5A /// KIR2DL5B /// KIR2DS1 /// KIR2DS2 /// KIR2DS3 /// KIR2DS4 /// KIR3DL3 /// KIR3DL3 /// KIR3DS1 (11738374_at) / Fold change /veh KIR2DL2 /// KIR2DL4 /// KIR2DL5A /// KIR2DL5B /// KIR2DS1 /// KIR2DS2 /// KIR2DS3 /// KIR2DS4 /// KIR3DL3 /// KIR3DL3 /// KIR3DS1 (11738374_at) / RFU C1QL1 (11718748_at) / Fold change /veh C1QL1 (11718748_at) / RFU TMPRSS4 (11747572_a_at) / Fold change /veh TMPRSS4 (11747572_a_at) / RFU HAMP (11756126_x_at) / Fold change /veh HAMP (11756126_x_at) / RFU RNFT2 (11725882_a_at) / Fold change /veh RNFT2 (11725882_a_at) / RFU NR4A2 (11747474_a_at) / Fold change /veh NR4A2 (11747474_a_at) / RFU ABCC12 (11746883_a_at) / Fold change /veh ABCC12 (11746883_a_at) / RFU TMEM136 (11760407_x_at) / Fold change /veh TMEM136 (11760407_x_at) / RFU CLDN22 /// WWC2 (11732394_at) / Fold change /veh CLDN22 /// WWC2 (11732394_at) / RFU HLA-DPB1 (11760878_x_at) / Fold change /veh HLA-DPB1 (11760878_x_at) / RFU SPINT1 (11716480_a_at) / Fold change /veh SPINT1 (11716480_a_at) / RFU GAP43 (11754022_s_at) / Fold change /veh GAP43 (11754022_s_at) / RFU A4GNT (11735810_at) / Fold change /veh A4GNT (11735810_at) / RFU PRB3 (11715151_x_at) / Fold change /veh PRB3 (11715151_x_at) / RFU TUBB4B (11761932_at) / Fold change /veh TUBB4B (11761932_at) / RFU CAPN14 (11732068_a_at) / Fold change /veh CAPN14 (11732068_a_at) / RFU TMCC2 (11721928_a_at) / Fold change /veh TMCC2 (11721928_a_at) / RFU IRGQ (11745062_a_at) / Fold change /veh IRGQ (11745062_a_at) / RFU FAM174B (11720279_a_at) / Fold change /veh FAM174B (11720279_a_at) / RFU TMPRSS4 (11748680_a_at) / Fold change /veh TMPRSS4 (11748680_a_at) / RFU FAM212B (11763350_a_at) / Fold change /veh FAM212B (11763350_a_at) / RFU PLEKHG5 (11743358_a_at) / Fold change /veh PLEKHG5 (11743358_a_at) / RFU ZSCAN30 (11745921_a_at) / Fold change /veh ZSCAN30 (11745921_a_at) / RFU CMKLR1 (11741424_a_at) / Fold change /veh CMKLR1 (11741424_a_at) / RFU LOC101060620 /// MAPK8IP1 (11723275_at) / Fold change /veh LOC101060620 /// MAPK8IP1 (11723275_at) / RFU SPTSSB (11747773_x_at) / Fold change /veh SPTSSB (11747773_x_at) / RFU PRSS12 (11739890_at) / Fold change /veh PRSS12 (11739890_at) / RFU BIN1 (11741810_x_at) / Fold change /veh BIN1 (11741810_x_at) / RFU WNT11 (11732464_a_at) / Fold change /veh WNT11 (11732464_a_at) / RFU C10orf10 (11716521_a_at) / Fold change /veh C10orf10 (11716521_a_at) / RFU C5orf56 (11738089_at) / Fold change /veh C5orf56 (11738089_at) / RFU CYB561 (11721691_x_at) / Fold change /veh CYB561 (11721691_x_at) / RFU ANKRD19P (11752326_a_at) / Fold change /veh ANKRD19P (11752326_a_at) / RFU OR2T12 /// OR2T33 /// OR2T8 (11738714_s_at) / Fold change /veh OR2T12 /// OR2T33 /// OR2T8 (11738714_s_at) / RFU VCAN (11748164_a_at) / Fold change /veh VCAN (11748164_a_at) / RFU JSRP1 (11732532_at) / Fold change /veh JSRP1 (11732532_at) / RFU KRTAP10-11 (11738290_x_at) / Fold change /veh KRTAP10-11 (11738290_x_at) / RFU MYO3A (11730013_a_at) / Fold change /veh MYO3A (11730013_a_at) / RFU EBF3 (11725865_a_at) / Fold change /veh EBF3 (11725865_a_at) / RFU CAMK2N1 (11719241_x_at) / Fold change /veh CAMK2N1 (11719241_x_at) / RFU C5orf56 (11738088_a_at) / Fold change /veh C5orf56 (11738088_a_at) / RFU OLFML3 (11715873_a_at) / Fold change /veh OLFML3 (11715873_a_at) / RFU LOC100653217 /// NTM (11731650_a_at) / Fold change /veh LOC100653217 /// NTM (11731650_a_at) / RFU MAPK11 (11762145_a_at) / Fold change /veh MAPK11 (11762145_a_at) / RFU FIZ1 (11724087_x_at) / Fold change /veh FIZ1 (11724087_x_at) / RFU OASL (11726364_x_at) / Fold change /veh OASL (11726364_x_at) / RFU SOX15 (11748057_x_at) / Fold change /veh SOX15 (11748057_x_at) / RFU CD79A (11719716_a_at) / Fold change /veh CD79A (11719716_a_at) / RFU HIST1H1D (11736915_at) / Fold change /veh HIST1H1D (11736915_at) / RFU CASKIN2 (11723855_a_at) / Fold change /veh CASKIN2 (11723855_a_at) / RFU LOC730098 (11760151_x_at) / Fold change /veh LOC730098 (11760151_x_at) / RFU OR4N2 (11742367_at) / Fold change /veh OR4N2 (11742367_at) / RFU PRRT2 (11749266_a_at) / Fold change /veh PRRT2 (11749266_a_at) / RFU SNX32 (11753110_a_at) / Fold change /veh SNX32 (11753110_a_at) / RFU CDHR5 (11726645_a_at) / Fold change /veh CDHR5 (11726645_a_at) / RFU RCAN1 (11760418_a_at) / Fold change /veh RCAN1 (11760418_a_at) / RFU FAM167A (11723789_a_at) / Fold change /veh FAM167A (11723789_a_at) / RFU FAM26E (11764081_at) / Fold change /veh FAM26E (11764081_at) / RFU ISYNA1 (11749810_s_at) / Fold change /veh ISYNA1 (11749810_s_at) / RFU ACY1 (11761880_at) / Fold change /veh ACY1 (11761880_at) / RFU 11764098_at / Fold change /veh 11764098_at / RFU SAMD14 (11745864_x_at) / Fold change /veh SAMD14 (11745864_x_at) / RFU NPB (11741838_a_at) / Fold change /veh NPB (11741838_a_at) / RFU TMPRSS6 (11731388_a_at) / Fold change /veh TMPRSS6 (11731388_a_at) / RFU KRTAP10-2 (11738614_at) / Fold change /veh KRTAP10-2 (11738614_at) / RFU ARHGAP8 /// PRR5-ARHGAP8 (11727945_x_at) / Fold change /veh ARHGAP8 /// PRR5-ARHGAP8 (11727945_x_at) / RFU KRTAP5-7 /// NADSYN1 (11734609_at) / Fold change /veh KRTAP5-7 /// NADSYN1 (11734609_at) / RFU RASL12 (11751679_a_at) / Fold change /veh RASL12 (11751679_a_at) / RFU CDKN2B (11736163_a_at) / Fold change /veh CDKN2B (11736163_a_at) / RFU PRF1 (11729649_at) / Fold change /veh PRF1 (11729649_at) / RFU, ZNF638 /// ZNF638-IT1 / Fold change vs veh, ZNF638 /// ZNF638-IT1 / RFU, PANK3 / Fold change vs veh, PANK3 / RFU, SH3YL1 / Fold change vs veh, SH3YL1 / RFU, ZEB2 / Fold change vs veh, ZEB2 / RFU, NRIP1 / Fold change vs veh, NRIP1 / RFU, PTTG1IP / Fold change vs veh, PTTG1IP / RFU, CAPN2 / Fold change vs veh, CAPN2 / RFU, MED14 / Fold change vs veh, MED14 / RFU, SNORA58 / Fold change vs veh, SNORA58 / RFU, C1orf63 / Fold change vs veh, C1orf63 / RFU, LRRFIP1 / Fold change vs veh, LRRFIP1 / RFU, NDUFAF7 / Fold change vs veh, NDUFAF7 / RFU, SLC12A2 / Fold change vs veh, SLC12A2 / RFU, IBTK / Fold change vs veh, IBTK / RFU, ESF1 / Fold change vs veh, ESF1 / Fold change vs veh, TMEM50B / RFU, TAOK1 / Fold change vs veh, TAOK1 / RFU, ACBD3 / Fold change vs veh, ACBD3 / RFU, TMA16 / Fold change vs veh, TMA16 / RFU, RWDD3 / Fold change vs veh, RWDD3 / RFU, BCAT1 / Fold change vs veh, BCAT1 / RFU, EDEM3 / Fold change vs veh, EDEM3 / RFU, TMEM33 / Fold change vs veh, TMEM33 / RFU, WDR75 / Fold change vs veh, WDR75 / RFU, AHCTF1 / Fold change vs veh, AHCTF1 / RFU, TFRC / Fold change vs veh, TFRC / RFU, ZDHHC17 / Fold change vs veh, ZDHHC17 / RFU, NOM1 / Fold change vs veh, NOM1 / RFU, ARL8B / Fold change vs veh, ARL8B / RFU, ZBTB11 / Fold change vs veh, ZBTB11 / RFU, TAMM41 / Fold change vs veh, TAMM41 / RFU, KIAA1704 /// LOC100996395 / Fold change vs veh, KIAA1704 /// LOC100996395 / RFU, ING1 / Fold change vs veh, ING1 / RFU, TRMT61B / Fold change vs veh, TRMT61B / RFU, FUBP3 / Fold change vs veh, FUBP3 / RFU, TP53 / Fold change vs veh, TP53 / RFU, TNKS2 / Fold change vs veh, TNKS2 / RFU, ZFP14 / Fold change vs veh, ZFP14 / RFU, ACTR2 / Fold change vs veh, ACTR2 / RFU, PPP3R1 / Fold change vs veh, PPP3R1 / RFU, PIK3R1 / Fold change vs veh, PIK3R1 / RFU, HNRNPA1 / Fold change vs veh, HNRNPA1 / RFU, RNF170 / Fold change vs veh, RNF170 / RFU, ZNF28 / Fold change vs veh, ZNF28 / RFU, RNGTT / Fold change vs veh, RNGTT / RFU, OGT / Fold change vs veh, OGT / RFU, BRD1 / Fold change vs veh, BRD1 / RFU, MARS / Fold change vs veh, MARS / RFU, ZNF655 / Fold change vs veh, ZNF655 / RFU, FAHD1 / Fold change vs veh, FAHD1 / RFU, BDP1 / Fold change vs veh, BDP1 / RFU, LRRCC1 / Fold change vs veh, LRRCC1 / RFU, ARID1A / Fold change vs veh, ARID1A / RFU, ZNF146 / Fold change vs veh, ZNF146 / RFU, ZNF330 / Fold change vs veh, ZNF330 / RFU, GPN3 / Fold change vs veh, GPN3 / RFU, C9orf123 / Fold change vs veh, C9orf123 / RFU, N4BP2L2 / Fold change vs veh, N4BP2L2 / RFU, ARFIP1 / Fold change vs veh, ARFIP1 / RFU, FAM179B / Fold change vs veh, FAM179B / RFU, BCL10 / Fold change vs veh, BCL10 / RFU, UHRF1BP1L / Fold change vs veh, UHRF1BP1L / RFU, BET1 / Fold change vs veh, BET1 / RFU, CNOT2 / Fold change vs veh, CNOT2 / RFU, ZNF268 / Fold change vs veh, ZNF268 / Fold change vs veh, ZNF507 / RFU, DGCR2 / Fold change vs veh, DGCR2 / RFU, WDSUB1 / Fold change vs veh, WDSUB1 / Fold change vs veh, HSP90B1 /// MIR3652 / RFU, ADSS / Fold change vs veh, ADSS / RFU, GK / Fold change vs veh, GK / RFU, ZNF148 / Fold change vs veh, ZNF148 / RFU, TAF9 / Fold change vs veh, TAF9 / RFU, SLC1A5 / Fold change vs veh, SLC1A5 / RFU, SLMO2 / Fold change vs veh, SLMO2 / RFU, ABCC4 / Fold change vs veh, ABCC4 / RFU, LOC101060439 /// RAP1B / Fold change vs veh, LOC101060439 /// RAP1B / RFU, RFX7 / Fold change vs veh, RFX7 / RFU, GTPBP10 / Fold change vs veh, GTPBP10 / RFU, CNEP1R1 / Fold change vs veh, CNEP1R1 / RFU, BIVM-ERCC5 /// ERCC5 / Fold change vs veh, BIVM-ERCC5 /// ERCC5 / RFU, ILF3 / Fold change vs veh, ILF3 / RFU 11762660_at / Fold change /veh 11762660_at / RFU VCAN (11757783_s_at) / Fold change /veh VCAN (11757783_s_at) / RFU DDX43 (11728927_at) / Fold change /veh DDX43 (11728927_at) / RFU KRT8 (11758188_x_at) / Fold change /veh KRT8 (11758188_x_at) / RFU NKD1 (11759106_at) / Fold change /veh NKD1 (11759106_at) / RFU SRD5A1 (11742802_a_at) / Fold change /veh SRD5A1 (11742802_a_at) / RFU TPSAB1 /// TPSB2 (11721975_s_at) / Fold change /veh TPSAB1 /// TPSB2 (11721975_s_at) / RFU GSTM3 (11746129_a_at) / Fold change /veh GSTM3 (11746129_a_at) / RFU IL23R (11737362_x_at) / Fold change /veh IL23R (11737362_x_at) / RFU TMEM51 (11727254_a_at) / Fold change /veh TMEM51 (11727254_a_at) / RFU PIWIL2 (11732686_x_at) / Fold change /veh PIWIL2 (11732686_x_at) / RFU ORM1 (11744905_x_at) / Fold change /veh ORM1 (11744905_x_at) / RFU CCDC152 (11743942_at) / Fold change /veh CCDC152 (11743942_at) / RFU ECM1 (11717891_a_at) / Fold change /veh ECM1 (11717891_a_at) / RFU IL23R (11748794_a_at) / Fold change /veh IL23R (11748794_a_at) / RFU TNFAIP8L3 (11732012_x_at) / Fold change /veh TNFAIP8L3 (11732012_x_at) / RFU MBOAT4 (11741988_at) / Fold change /veh MBOAT4 (11741988_at) / RFU 11764193_at / Fold change /veh 11764193_at / RFU TMEM53 (11763286_at) / Fold change /veh TMEM53 (11763286_at) / RFU MAGEB2 (11727129_at) / Fold change /veh MAGEB2 (11727129_at) / RFU TMEM200A (11744735_a_at) / Fold change /veh TMEM200A (11744735_a_at) / RFU CCDC152 (11751479_a_at) / Fold change /veh CCDC152 (11751479_a_at) / RFU FAM211A (11726209_a_at) / Fold change /veh FAM211A (11726209_a_at) / RFU RGS16 (11746705_a_at) / Fold change /veh RGS16 (11746705_a_at) / RFU VCAN (11755009_s_at) / Fold change /veh VCAN (11755009_s_at) / RFU RHOB (11743442_s_at) / Fold change /veh RHOB (11743442_s_at) / RFU RGS16 (11720943_a_at) / Fold change /veh RGS16 (11720943_a_at) / RFU RGS16 (11720944_at) / Fold change /veh RGS16 (11720944_at) / RFU, VPS4B / Fold change vs veh, VPS4B / RFU, CREB1 / Fold change vs veh, CREB1 / RFU, DNAJC13 / Fold change vs veh, DNAJC13 / RFU, GNAQ / Fold change vs veh, GNAQ / RFU, CDK5R1 / Fold change vs veh, CDK5R1 / RFU, ZRANB3 / Fold change vs veh, ZRANB3 / RFU, CUL4A / Fold change vs veh, CUL4A / RFU, CCNY / Fold change vs veh, CCNY / RFU, UFL1 / Fold change vs veh, UFL1 / RFU, COG3 / Fold change vs veh, COG3 / RFU, DIAPH2 / Fold change vs veh, DIAPH2 / RFU, SKA2 / Fold change vs veh, SKA2 / RFU, AFF3 / Fold change vs veh, AFF3 / RFU, LMF1 / Fold change vs veh, LMF1 / RFU, IPO11 / Fold change vs veh, IPO11 / RFU, DFFB / Fold change vs veh, DFFB / RFU, FOXP1 / Fold change vs veh, FOXP1 / RFU, CARD8 / Fold change vs veh, CARD8 / RFU, STRN3 / Fold change vs veh, STRN3 / RFU, ADK / Fold change vs veh, ADK / RFU, RASSF2 / Fold change vs veh, RASSF2 / RFU, WIPF1 / Fold change vs veh, WIPF1 / RFU, LARP1B / Fold change vs veh, LARP1B / RFU, RASA1 / Fold change vs veh, RASA1 / RFU, RB1 / Fold change vs veh, RB1 / RFU, PPFIA1 / Fold change vs veh, PPFIA1 / RFU, MAT2A / Fold change vs veh, MAT2A / RFU, CCT5 / Fold change vs veh, CCT5 / RFU, WDR92 / Fold change vs veh, WDR92 / RFU, CUX1 / Fold change vs veh, CUX1 / RFU, TTC7A / Fold change vs veh, TTC7A / RFU, TMEM135 / Fold change vs veh, TMEM135 / RFU, DEPTOR / Fold change vs veh, DEPTOR / RFU, CPM / Fold change vs veh, CPM / RFU, DNAJB6 / Fold change vs veh, DNAJB6 / RFU, CACNA2D3 / Fold change vs veh, CACNA2D3 / RFU, DTX4 / Fold change vs veh, DTX4 / RFU, TFCP2 / Fold change vs veh, TFCP2 / RFU, GMCL1 /// GMCL1P1 / Fold change vs veh, GMCL1 /// GMCL1P1 / RFU, AEBP2 / Fold change vs veh, AEBP2 / RFU, SNHG1 /// SNORD22 /// SNORD25 /// SNORD26 /// SNORD27 /// SNORD28 /// SNORD29 /// SNORD31 / Fold change vs veh, SNHG1 /// SNORD22 /// SNORD25 /// SNORD26 /// SNORD27 /// SNORD28 /// SNORD29 /// SNORD31 / Fold change (Aza/veh), C12orf56 (ProbeSet 11735607_a_at) / Fold change (ACY-1035/veh), C12orf56 (ProbeSet 11735607_a_at) / Fold change (Aza/veh), FGFR1OP (ProbeSet 11751329_s_at) / Fold change (ACY-1035/veh), FGFR1OP (ProbeSet 11751329_s_at) / Fold change (Aza/veh), VPS36 (ProbeSet 11739960_a_at) / Fold change (ACY-1035/veh), VPS36 (ProbeSet 11739960_a_at) / RFU SYPL1 (11715823_x_at) / Fold change /veh SYPL1 (11715823_x_at) / RFU IGFBP7 (11715501_s_at) / Fold change /veh IGFBP7 (11715501_s_at) / RFU REEP3 (11722064_at) / Fold change /veh REEP3 (11722064_at) / RFU IGLL1 (11728026_x_at) / Fold change /veh IGLL1 (11728026_x_at): dose or concentration left out as unconfirmed
Details: ProbeSet 11722022_s_at; LIST D

Nc1ncn([C@@H]2O[C@H](CO)[C@@H](O)[C@H]2O)c(=O)n1 [azacitidine]
Fold change vs veh, CDK5R1: 0.77
